“And” between values parts separate entries of the source, which are not always exact repeats. Equal entries are not always repeated. “Also recorded” adds a separate entry of the source.
What was measured:
[1] = system: general motor activity of mice; experiment: General locomotor activity of mice (Stoelting electronic activity monitor); format: in vivo, Balb/c mice; conditions: Mus musculus, ip, 1 h; i.p.; 60-min general motor activity vs vehicle-injected and uninjected controls; 8 animals per dose
[2] = mouse, in vivo
[3] = n-Octanol/water partition coefficient; format: physicochemical; conditions: 5 ml n-octanol / 5 ml water, stirring 18 hours; read-out: KOW: Octanol/Water Partition Coefficient (converted)
Protocol: A Partition Coefficient was defined by the equation: [formula] representing the amount of the ester taken up per ml of n-octanol relative to the amount of the same compound taken up per ml of water.
The n-octanol/water partition coefficients were obtained from measurements of the distribution of 1, 3, 5 and 6 pmol quantities of each ^14C-labeled compound into a mixture of 5 ml of n-octanol and 5 ml water. At each concentration, the amount of labeled compound in the aqueous and n-octanol phases was calculated from the amount of radioactive material present after stirring for 18 hours.

[4] = system: general motor activity of mice; experiment: General locomotor activity of mice (Stoelting electronic activity monitor); format: in vivo, Balb/c mice; conditions: for In Vivo Inhibition of General Motor Activity: graded 0-5; for effect on motor activity at low doses: 10 mg/kg (19 µmol/kg) or below, 10 mg/kg; for activity in the general motor activity test (in words): i.p., mice
Protocol: The effect of intraperitoneal (i.p.) injections of test compounds on the general motor activity of mice during a 60-min period was determined in a Stoelting electronic activity monitor. Dose-response curves were obtained from which the half-maximally effective values were calculated and the results are shown in Table V.
The compounds were dissolved in 25% (vols.) propylene glycol in water and injected i.p. into Balb/c mice (18-24 g). Dose-response measurements were obtained for 6 animals per dose or time point. Activity was monitored for 60 min using a Stoelting Electronic Activity Monitor (EAM) apparatus to assess the general motor activity of the animals.
The general locomotor activity of mice was measured in the Stolting activity monitor apparatus during 60 min after an intraperitoneal (i.p.) injection of a test compound.

[5] = system: stereotypic behavior; experiment: Stereotypy behavior test (apomorphine or D-amphetamine induced); format: in vivo, mice
Protocol: Stereotypy tests were carried out by the method of A. Campbell et al, Neuropharmacol. 21, 953 (1982). Test mice were pretreated with Compound 26 (i.p. injection), then 15 min later apomorphine or D-amphetamine sulfate was injected i.p. The animals were observed every 10 min and rated for stereotypic behavior in comparison to controls.
Rating scale: • 0 = no stereotypy • 1 = discontinuous sniffing • 2 = continuous sniffing • 3 = continuous sniffing and jaw movements
The average total score per animal was obtained (maximum positive score = 18) over a 60-min period. A compound which depresses this score is considered to have properties of a neuroleptic with a potential for use as an antipsychotic agent. The results (see Table VIII) show a pronounced reduction of stereotypy, down to 24% of control.

[6] = Comparative brain/liver uptake of 14C-labeled compounds (Brain Penetration Index); conditions: for increase of 5-min BPI over GABA: 5 min after s.c. injection, relative to GABA
Protocol: The criterion used herein for measuring the extent to which a compound, from which the radical A is derived, crosses the blood-brain barrier is based on the uptake of this compound by the brain relative to its uptake by the liver. […] Measurements of the quantity of a compound present in brain and liver at 5 minutes after a subcutaneous (s.c.) injection were used to calculate a Brain Penetration Index (BPI), with the equation: [formula]
This is the amount of the compound present per gram of brain tissue as a percent of the amount per gram of liver tissue.
This procedure has the advantage that even for a sparingly soluble lipid ester, which tends to remain largely at the site of the injection and slowly diffuse into the circulation, its level in the liver will reflect the amount available rather than the initial dose injected.
The uptake of a ^14C-labeled compound into brain was compared with the uptake into liver of the same animal.
All determinations were carried out at 5 min after injection. The volumes of the injected doses into mice (body weight, 18-24 g) for the i.v., i.p., and s.c. doses were 0.15, 0.3 and 0.5 ml, respectively. […] Each tissue was homogenized in 8 ml of pyridine in a glass homogenizer.
Each labeled test compound was injected as a solution in 0.5 ml of saline (Compound 7) or in 25% propylene glycol in water (Compounds 1, 5, 6) subcutaneously (s.c.) into young adult Balb/c mice (18-24 g body weight). After 5 min (or longer) animals were sacrificed and the brain and liver removed, weighed and homogenized respectively in 8 ml and 10 ml of brain protein solvent (1 % (w/v) sodium dodecyl sulfate in 6 M urea and 19 mM EDTA, pH 7.4, 0.03 M phosphate). Aliquots (0.5 ml) of the homogenates were mixed with 10 ml of Aquasol 2 (New England Nuclear) and counted in a Beckman liquid scintillation counter. The total uptake of each compound per g brain and liver tissue was calculated. The proportion of uptake into brain as compared to liver (100%) of the same animal was designated as the Brain Penetration Index (BPI), expressed as a percentage typically at 5 min after injection.
Each of the ^14C-labeled Compounds 26, 28 and 30 were in 125 µl of the propylene glycol diluted with water up to 0.5 ml, and then injected subcutaneously into test Balb/c mice (20 ± 2 g weight). After 5 min the animals were sacrificed and the brain and liver were removed, weighed and homogenized in 8 ml and 10 ml of brain protein solvent, respectively. Next 0.5 ml aliquots were mixed with 10 ml of Aquasol 2 (New England Nuclear Corp., Boston, MA) and counted in a Beckman liquid scintillation counter. The data for the label in each tissue were used to calculate the total quantity of the compound present in brain and liver per gram of tissue. The ratio of the amount in brain as a percent of that present in liver at 5 min was taken as the Brain Penetration Index (BPI). Measurements at longer uptake times were also obtained to evaluate the accumulation of the compounds in the brain.

[7] = system: bicuculline-induced epileptic seizures; experiment: Delay of onset of bicuculline-induced seizures (anticonvulsant activity); format: in vivo, mouse; conditions: for anticonvulsant properties: administered at doses of 30 mg/kg; for In Vivo Delay of Time of Onset of Bicuculline-induced seizures: graded 0-5; for Onset of seizures: % Saline Control / Survival Time: % Saline Control: 24 hr pretreatment, bicuculline 0.3 mg/kg
Protocol: In a second behavioral test, the ability of a substance to prevent or delay the onset of biculline-induced epileptic seizures was measured. […] At 24 hr after i.p. injection of the cholesteryl derivative at a dose of 30 mg/kg (64 pmol/kg), the onset of seizures was delayed by 30% after an acute i.p. injection of bicuculline at 0.3 mg/kg. […] The dexamethasone and butyl esters had no effect.
The compounds were also injected i.p. at 1, 6 and 24 hr before the administration of bicuculline (0.3 mg/kg) s.c. The latency to the onset of generalized tonic-clonic epileptic seizures and the protection against the lethality of bicuculline were measured and evaluated as a percent of the data for vehicle-injected controls. No significant changes were obtained at the 1 hr and 6 hr time points. At the 24 hr time, however, some compounds delayed while others accelerated the onset of seizures.
The effect of the compound to delay the onset of a bicuculline-induced seizures was evaluated.
The ability of a substance to delay the onset of bicuculline-induced epileptic seizures in the mouse was measured (Table X). […] At 24 hr after i.p. injection of the cholesteryl derivative (6) at a dose of 30 mg/kg (64 pmol/kg), the onset of seizures was delayed by 30% (as compared to saline controls) after an acute i.p. injection of bicuculline at 0.3 mg/kg. […] The dexamethasone and butyl esters had no effect on seizures in mice.

[8] = in vivo; conditions: mouse, sc
[9] = target: GABA "receptors"; experiment: Inhibition of [3H]GABA binding to synaptic membranes from rat cerebellum; conditions: [3H]GABA (15 nM); synaptic membrane preparations from rat cerebellum
Protocol: IC50 values were determined by fitting data to linearized transformations, based on including at least two concentrations of antagonists above and below the IC50, with at least triplicate replication per concentration.

[10] = 188 μmol/kg s.c., 5 min, Balb/c mice, mean ± S.E.M. (3 measurements)
[11] = 200 μmol/kg s.c., 60 min, Balb/c mice
[12] = 360 μmol/kg s.c., 180 min, Balb/c mice
[13] = Table IX summary, 5-min Brain Penetration Index
[14] = 20 μmol/kg s.c., 60 min, Balb/c mice
[15] = 60 μmol/kg s.c., 240 min, Balb/c mice
[16] = 67 μmol/kg s.c., 5 min, Balb/c mice, mean ± S.E.M. (3 measurements)
[17] = 170 μmol/kg s.c., 60 min, Balb/c mice
[18] = 260 μmol/kg s.c., 5 min, mice, mean ± S.E.M. (n = 3)

Structure (SMILES): CC/C=C\C/C=C\C/C=C\CCCCCCCC(=O)OCC(COC(=O)CCCN)OC(=O)CCCN (stereo not shown) [Compound 26, 1-linolenoyl-2,3-(gamma-aminobutyroyl)propane-1,2,3-triol]
- ED50 [1]: 69 µmol/kg
- level present in the brain at ED50 [2]: 2.1
- logP at 18 h [3]: 0.322
- ED50 ([4]; Mus musculus, ip, 1 h, depression of locomotor activity at high doses, Figure 2): 36 mg/kg
- In Vivo Inhibition of General Motor Activity [4]: 4
- effect on motor activity at low doses [4]: enhancing locomotor activity; also recorded: enhances motor activity
- effect on motor activity at low doses ([4]; listed as monolinolenoyl-diGABA glyceride): stimulating activity
- Stereotypy score induced by D-Amphetamine Sulfate ([5]; 170 μmole/kg i.p. pretreatment, D-amphetamine sulfate 3 mg/kg, total score over 60 min (max 18), n = 4): 3.3 ± 0.9
- Stereotypy score induced by Apomorphine ([5]; 170 μmole/kg i.p. pretreatment, apomorphine 1 mg/kg, total score over 60 min (max 18), n = 4): 8 ± 3.6
- Stereotypy (% of control), D-Amphetamine Sulfate ([5]; 170 μmole/kg, D-amphetamine sulfate 3 mg/kg): 24 % of control
- Stereotypy (% of control), Apomorphine ([5]; 170 μmole/kg, apomorphine 1 mg/kg): 52 % of control
- (BRAIN) [6, 10]: 3.0 ± 0.2 nmol/g
- (LIVER) [6, 10]: 3.3 ± 0.2 nmol/g
- BPI [6, 10]: 90±13%
- (BRAIN) [6, 11]: 2.4 nmol/g
- (LIVER) [6, 11]: 2.9 nmol/g
- BPI [6, 11]: 87%
- (BRAIN) [6, 12]: 9.4 nmol/g
- (LIVER) [6, 12]: 5.5 nmol/g
- BPI [6, 12]: 170%
- increase of 5-min BPI over GABA [6]: 90 fold
- BPI [6, 13]: 90
- time at which liver levels reach a maximum ([6]; s.c., mice): 45 to 60 min
- anticonvulsant properties [7]: only weak anticonvulsant properties
- In Vivo Delay of Time of Onset of Bicuculline-induced seizures [7]: 4
- remaining at 4 h ([8]; brain): 60%
- remaining at 4 h ([8]; kidney): 10%
- remaining at 4 h ([8]; liver): 30%

Structure (SMILES): CC/C=C\C/C=C\C/C=C\CCCCCCCC(=O)OCC(COC(=O)CCCN)OC(=O)CCCCCCC/C=C\C/C=C\C/C=C\CC (stereo not shown) [Compound 28, 1,2-dilinolenoyl-3-(gamma-aminobutyroyl)propane-1,2,3-triol]
- ED50 [1]: 43 µmol/kg
- level present in the brain at ED50 [2]: 1.7
- logP at 18 h [3]: 0.82
- In Vivo Inhibition of General Motor Activity [4]: 4
- (BRAIN) [6, 14]: 1.4 nmol/g
- (LIVER) [6, 14]: 3.1 nmol/g
- BPI [6, 14]: 44%
- (BRAIN) [6, 15]: 7.1 nmol/g
- (LIVER) [6, 15]: 18.3 nmol/g
- BPI [6, 15]: 39%
- (BRAIN) [6, 16]: 5.9 ± 0.4 nmol/g
- (LIVER) [6, 16]: 4.7 ± 0.4 nmol/g
- BPI [6, 16]: 127±8.3%
- (BRAIN) [6, 17]: 6.0 nmol/g
- (LIVER) [6, 17]: 8.8 nmol/g
- BPI [6, 17]: 68%
- increase of 5-min BPI over GABA [6]: 127 fold
- BPI [6, 13]: 127
- time at which liver levels reach a maximum ([6]; s.c., mice): 45 to 60 min
- anticonvulsant properties [7]: only weak anticonvulsant properties
- In Vivo Delay of Time of Onset of Bicuculline-induced seizures [7]: 5

Structure (SMILES): CC/C=C\C/C=C\C/C=C\CCCCCCCCOC(=O)CCCN [Compound 5, Linolenoyl Ester of y-aminobutyric Acid]
- IC50 [9]: 40 µM
- activity in the general motor activity test (in words) ([4]; listed as linolenyl ester): not active
- activity in the general motor activity test (in words) ([4]; listed as linolenyl ester of GABA): insignificant effect; also recorded: no significant effect
- (BRAIN) [6, 18]: 3.5 ± 0.4 nmol/g
- (LIVER) [6, 18]: 141.7 ± 8 nmol/g
- BPI [6, 18]: 2 ± 0.6%
- (BRAIN) ([6]; 260 μmol/kg s.c., 15 min, mice): 11.0 nmol/g
- (LIVER) ([6]; 260 μmol/kg s.c., 15 min, mice): 220.8 nmol/g
- BPI ([6]; 260 μmol/kg s.c., 15 min, mice): 5%
- (BRAIN) ([6]; 260 μmol/kg s.c., 45 min, mice): 24.9 nmol/g
- (LIVER) ([6]; 260 μmol/kg s.c., 45 min, mice): 33.3 nmol/g
- BPI ([6]; 260 μmol/kg s.c., 45 min, mice): 75%
- increase of 5-min BPI over GABA [6]: 2 fold
- BPI [6, 13]: 2
- accumulation of radioactivity in brain persisted post-injection ([6]; s.c., mice): 45 to 60 min
- Onset of seizures: % Saline Control ([7]; 12 mg/kg): 102 ± 4 % Saline Control
- Survival Time: % Saline Control ([7]; 12 mg/kg): 118 ± 10 % Saline Control
- Onset of seizures: % Saline Control ([7]; 17 mg/kg): 73 ± 15 % Saline Control
- Survival Time: % Saline Control ([7]; 17 mg/kg): 111 ± 14 % Saline Control
- Onset of seizures: % Saline Control ([7]; 25 mg/kg): 78 ± 9 % Saline Control
- Survival Time: % Saline Control ([7]; 25 mg/kg): 68 ± 9 % Saline Control
- Onset of seizures: % Saline Control ([7]; 36 mg/kg): 50 ± 5 % Saline Control
- Survival Time: % Saline Control ([7]; 36 mg/kg): 62 ± 6 % Saline Control
- Onset of seizures: % Saline Control ([7]; 50 mg/kg): 40 ± 11 % Saline Control
- Survival Time: % Saline Control ([7]; 50 mg/kg): 63 ± 8 % Saline Control
- acceleration of seizure onset time ([7]; 50 mg/kg, 24 hr, listed as linolenyl ester of GABA): 70% and 60%
- In Vivo Delay of Time of Onset of Bicuculline-induced seizures [7]: 0
